Source: patent US8753841B2, “Enzyme that catalyzes a peptide-forming reaction from a carboxy component and an amine component, microbe producing the same, and a method of producing a dipeptide using the enzyme or microbe” (Ajinomoto Co., Inc., priority 2002, dated 2014)
*: point of attachment. Boc = CC(C)(C)OC(=O)*

How the values were obtained:
[1] = tested on: enzyme derived from Sphingobacterium sp. strain FERM BP-8124; assay: Substrate specificity of enzyme derived from Sphingobacterium sp.; type: biochemical; parameters: key to Produced peptide (mM): +: those peptides for which production was confirmed but which were unable to be quantified due to the absence of a standard; a trace amount; conditions: carboxy component 100 mM, 0.33 units enzyme, pH 9.0, 25° C., 1.5 hours
[2] = tested on: Empedobacter brevis strain FERM BP-8113 microbial cells; assay: Production of peptide using microbial cells of Empedobacter brevis; type: cell-based; conditions: 1 mL 100 g/L cell suspension + 1 mL buffer with 200 mM carboxy component, 400 mM amino acid, 10 mM EDTA, pH 9.0, 18° C., 2 hours
Experimental: A 50 mL medium (pH 6.2) containing 5 grams (g) of glucose, 5 g of ammonium sulfate, 1 g of monopotassium phosphate, 3 g of dipotassium phosphate, 0.5 g of magnesium sulfate, 10 g of yeast extract and 10 g of peptone in 1 liter (L) was transferred to a 500 mL Sakaguchi flask and sterilized at 115° C. for 15 minutes.
Microbial cells were collected by centrifuging (10,000 rounds per minute (rpm), 15 minutes) the culture broth obtained in Example 1, followed by suspending them to a concentration of 100 g/L in 100 mM borate buffer (pH 9.0) containing 10 mM EDTA. After respectively adding 1 mL of the suspension to 1 mL each of 100 mM borate buffer solutions (pH 9.0) containing 10 mM EDTA, 200 mM of the following carboxy components, and 400 mM of the following amino acids to make a final volume of 2 mL, the reaction was carried out at 18° C. for 2 hours.

[3] = tested on: peptide-forming enzyme from Empedobacter brevis strain FERM BP-8113; assay: Substrate specificity of enzyme (peptide production from carboxy and amine components); type: biochemical; parameters: key to Formed peptide (mM): +: those peptides for which production was confirmed but which were unable to be quantified due to the absence of a standard; a trace amount; conditions: L-amino acid methyl ester hydrochloride 100 mM, pH 9.0, 25° C., 3 hours
Excerpt: Ester specificity was examined in the case of using L-amino acid ester for the carboxy component. […] HCl represents hydrochloride in Table 4.
Peptide production was examined in the case of using L-alanine methyl ester for the carboxy component and using various L-amino acids for the amine component.
Peptide production was examined in the case of using various types of L-amino acid methyl esters for the carboxy component and using L-glutamine for the amine component. […] Furthermore, Tween-80 was added to the reaction system to a final concentration of 0.1% in the case of using L-Trp-OMe and L-Tyr-OMe.

[4] = tested on: peptide-forming enzyme from Empedobacter brevis strain FERM BP-8113; assay: as above; type: biochemical; parameters: key: +: those peptides for which production was confirmed but which were unable to be quantified due to the absence of a standard; a trace amount; conditions: 0.1 unit enzyme, 25° C.
[5] = tested on: peptide-forming enzyme from Empedobacter brevis strain FERM BP-8113; assay: as above; type: biochemical; conditions: pH 9.0, 25° C., 3 hours; for Formed peptide: L-amino acid amide hydrochloride 100 mM as carboxy component, L-amino acid 150 mM
[6] = tested on: peptide-forming enzyme from Empedobacter brevis strain FERM BP-8113; assay: as above; type: biochemical; parameters: key: +: those for which production was confirmed but which were unable to be quantified due to the absence of a standard; a trace amount
[7] = tested on: peptide-forming enzyme from Empedobacter brevis strain FERM BP-8113; assay: Enzyme inhibitors: effect on L-alanyl-L-glutamine production by the Mono S fraction enzyme; type: biochemical; conditions: for inhibition of the enzyme by serine enzyme inhibitors (in words): pH 9.0, 25° C.
[8] = Comparison of ability to catalyze peptide formation with known enzymes; type: biochemical; conditions: enzyme of present invention = 100.0
Excerpt: The peptide-forming ability of the present enzyme was compared with that of known enzymes. Carboxypeptidase Y described in EP 278787A1 and the thiol endopeptidases (ficin, papain, bromelain, and chymopapain) described in EP 359399B1 were used as the known enzymes, and they were used in the form of purified enzymes (manufactured by Sigma). The enzyme uniformly purified in Example 3 was used as a source of the present enzyme of the present invention. […] As has been described above, the present enzyme was verified to have an extremely high peptide production rate unlike any known enzyme in the prior art. Furthermore, the enzyme of the present invention is a dimer having a molecular weight of about 75,000. In contrast, the molecular weight of the carboxypeptidase Y has been reported to be about 61,000, while the molecular weight of thiol endopeptidase has been reported to be about 23,000 to 36,000. Thus, the L-alanyl-L-glutamine production rate of the enzyme of the present invention as compared to those of the carboxypeptidase Y and the thiol endopeptidase is even greater when the rate is expressed per molecular weight than when it is expressed per unit weight as indicated in the examples.

[9] = Table 15-3, amine component 150 mM
[10] = carboxy component 100 mM, amine component 150 mM, reaction time 3 hr
[11] = Table 15-1, amine component 150 mM
[12] = Table 15-4, amine component 150 mM
[13] = inhibitor at 10 mM, borate buffer pH 9.0, 25° C., 5 minutes, 100 = absence of enzyme inhibitor
[14] = oligopeptide production, amount of enzyme 0.2 unit, pH 9.0, 25° C., 3 hours

Sequence of enzyme derived from Sphingobacterium sp. strain FERM BP-8124 (as listed by the source): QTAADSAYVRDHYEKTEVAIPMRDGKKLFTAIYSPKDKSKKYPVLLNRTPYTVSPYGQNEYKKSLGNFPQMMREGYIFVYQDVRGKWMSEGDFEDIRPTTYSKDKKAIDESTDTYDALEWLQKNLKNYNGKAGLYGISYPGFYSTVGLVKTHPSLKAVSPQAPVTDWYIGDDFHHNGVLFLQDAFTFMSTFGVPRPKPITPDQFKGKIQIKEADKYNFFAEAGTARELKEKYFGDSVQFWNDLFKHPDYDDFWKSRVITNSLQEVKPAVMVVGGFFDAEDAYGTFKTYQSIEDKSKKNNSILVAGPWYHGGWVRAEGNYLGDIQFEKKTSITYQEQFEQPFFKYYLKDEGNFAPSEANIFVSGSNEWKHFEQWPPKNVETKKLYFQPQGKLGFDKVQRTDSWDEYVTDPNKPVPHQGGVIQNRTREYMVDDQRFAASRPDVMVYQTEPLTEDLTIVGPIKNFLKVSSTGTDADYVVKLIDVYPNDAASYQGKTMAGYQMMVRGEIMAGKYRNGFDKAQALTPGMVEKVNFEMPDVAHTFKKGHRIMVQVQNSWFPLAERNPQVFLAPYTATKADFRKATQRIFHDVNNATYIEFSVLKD

L-Met-L-Phe
Produced peptide [1, 9]: 8.9 mM | Formed peptide [2]: 28.5 mM | Formed peptide ([3]; L-amino acid 150 mM): 34.0 mM

H-Ser(tBu)-Gln-OH
Produced peptide (mM) ([4]; carboxy component 100 mM, amine component 150 mM, reaction time 2 hr): tr

L-Thr-L-Leu
Produced peptide [1, 9]: 15.3 mM | Formed peptide [2]: 23.0 mM | Formed peptide ([3]; L-amino acid 150 mM): 28.4 mM

L-Ser-L-Ser
Produced peptide [1, 9]: 9.9 mM | Formed peptide [2]: 29.0 mM | Formed peptide ([3]; L-amino acid 150 mM): 38.0 mM

L-Thr-L-Gln
Produced peptide ([1]; Table 15-2, L-Gln 150 mM): 36.1 mM | Formed peptide ([3]; 150 mM L-glutamine): 81.9 mM | Formed peptide [5]: 0.3 mM

H-t-Leu-H-Gln-OH
Produced peptide (mM) [4, 10]: tr

L-Ala-L-Met
Produced peptide [1, 11]: 86.9 mM | Produced peptide (mM) [1, 12]: tr | Formed peptide [2]: 68.3 mM | Formed peptide [5]: 3.4 mM

L-Ala-L-Phe
Produced peptide [1, 11]: 69.5 mM | Formed peptide [2]: 62.4 mM

H-Ala-2-Nal-OH
Produced peptide (mM) ([6]; carboxy component 20 mM, amine component 20 mM, 0.1 unit enzyme, 25° C., reaction time 3 hr): +

O=C(O)CN(CCN(CC(=O)O)CC(=O)O)CC(=O)O [EDTA, ethylene diamine tetraacetic acid]
Relative activity of L-Ala-L-Gln production (%) [7, 13]: 96%

L-Ala-L-Ser
Produced peptide [1, 11]: 43.8 mM | Formed peptide [2]: 51.3 mM

H—Cl—F-Phe-H-Gln-OH
Produced peptide (mM) ([4]; carboxy component 25 mM, amine component 50 mM, reaction time 3 hr): tr

N=C(N)Nc1ccc(C(=O)Oc2ccc([N+](=O)[O-])cc2)cc1 [p-Nitrophenyl-p′-guanidino benzoate, p-nitrophenyl-p′-guanidinobenzoate]
Relative activity of L-Ala-L-Gln production (%) [7, 13]: 0.1% | inhibition of the enzyme by serine enzyme inhibitors (in words) ([7]; inhibitor at 10 mM, 5 minutes): inhibited

c1cnc2c(c1)ccc1cccnc12 [o-Phenanthroline]
Relative activity of L-Ala-L-Gln production (%) [7, 13]: 96%

Ficin
Ratio of L-Ala-L-Gln production rate per enzyme unit weight [8]: 0.0017

L-Ala-L-Leu
Produced peptide [1, 11]: 33.0 mM | Formed peptide [2]: 38.2 mM

Gly-L-Phe
Produced peptide [1, 9]: 20.0 mM | Formed peptide ([3]; L-amino acid 150 mM): 44.0 mM | Produced peptide ([5]; oligopeptide production, amount of enzyme 0.1 unit): 17.3 mM

L-Ala-L-Phe-L-Met
Produced peptide (mM) [6, 14]: +

L-Ala-L-His
Produced peptide [1, 11]: 73.6 mM | Produced peptide (mM) [1, 12]: tr | Formed peptide [2]: 52.1 mM | Formed peptide [5]: 3.9 mM

L-Phe-L-Gln
Produced peptide ([1]; Table 15-2, L-Gln 150 mM): 0.8 mM | Formed peptide ([3]; 150 mM L-glutamine): 0.9 mM | Formed peptide [5]: 0.2 mM

H-2-Nal-H-Gln-OH
Produced peptide (mM) ([4]; carboxy component 40 mM, amine component 40 mM, reaction time 3 hr): tr

O=C(O)CI [Monoiodoacetate]
Relative activity of L-Ala-L-Gln production (%) ([7]; pH 9): 101%

L-Tyr-L-Gln
Produced peptide ([1]; Table 15-2, L-Gln 150 mM): 0.6 mM | Formed peptide ([3]; 150 mM L-glutamine): 3.4 mM

L-Thr-L-Met
Produced peptide [1, 9]: 28.9 mM | Formed peptide ([3]; L-amino acid 150 mM): 38.6 mM

L-Val-L-Phe
Produced peptide [1, 9]: 1.0 mM | Formed peptide ([3]; L-amino acid 150 mM): 6.1 mM

O=S(=O)(F)Cc1ccccc1 [Phenylmethylsulfonyl fluoride]
Relative activity of L-Ala-L-Gln production (%) [7, 13]: 115% | inhibition of the enzyme by serine enzyme inhibitors (in words) ([7]; inhibitor at 10 mM, 5 minutes): not inhibited

α-L-Asp-L-Gln
Produced peptide ([1]; Table 15-2, L-Gln 150 mM): 0.05 mM | Formed peptide (mM) ([3]; 150 mM L-glutamine): tr

L-Arg-L-Phe
Produced peptide (mM) [1, 9]: tr | Formed peptide ([3]; L-amino acid 150 mM): 1.9 mM

Gly-L-His
Produced peptide [1, 9]: 36.2 mM | Formed peptide [2]: 22.1 mM | Formed peptide ([3]; L-amino acid 150 mM): 31.6 mM

H-CHA-Phe-OH
Produced peptide (mM) ([6]; carboxy component 40 mM, amine component 40 mM, 0.1 unit enzyme, 25° C., reaction time 3 hr): +

L-Arg-L-Met
Produced peptide (mM) [1, 9]: tr | Formed peptide ([3]; L-amino acid 150 mM): 0.7 mM

L-Met-L-Ser
Produced peptide [1, 9]: 25.3 mM | Formed peptide ([3]; L-amino acid 150 mM): 12.8 mM

L-Ile-L-Met
Produced peptide [1, 9]: 5.1 mM | Formed peptide [2]: 8.3 mM | Formed peptide ([3]; L-amino acid 150 mM): 10.0 mM

H-p-F-Phe-H-Gln-OH
Produced peptide (mM) [4, 10]: tr

L-Ile-L-Ser
Produced peptide [1, 9]: 17.3 mM | Formed peptide ([3]; L-amino acid 150 mM): 17.2 mM

L-Ala-Gly-Gly-L-Phe-L-Met
Produced peptide (mM) [6, 14]: +

L-Ala-Gly-L-Phe
Produced peptide (mM) ([6]; oligopeptide production, amount of enzyme 0.1 unit, pH 9.0, 25° C., 3 hours): +

H-Lys(Boc)-Gln-OH
Produced peptide (mM) ([6]; carboxy component 100 mM, amine component 150 mM, 0.1 unit enzyme, 25° C., reaction time 2 hr): +

L-Val-L-Met
Produced peptide [1, 9]: 6.8 mM | Formed peptide [2]: 10.5 mM | Formed peptide ([3]; L-amino acid 150 mM): 10.3 mM

Chymopapain: thiol endopeptidase described in EP 359399B1, purified enzyme manufactured by Sigma
Ratio of L-Ala-L-Gln production rate per enzyme unit weight [8]: 0.0013

Bromelain
Ratio of L-Ala-L-Gln production rate per enzyme unit weight [8]: 0.0010

L-Ser-L-Gln
Produced peptide ([1]; Table 15-2, L-Gln 150 mM): 12.9 mM | Formed peptide ([3]; 150 mM L-glutamine): 24.0 mM

CCN1C(=O)C=CC1=O [N-Ethyl maleimide]
Relative activity of L-Ala-L-Gln production (%) [7, 13]: 110%

L-Ser-L-Met
Produced peptide [1, 9]: 7.6 mM | Formed peptide ([3]; L-amino acid 150 mM): 12.5 mM

H—N—Me-Ala-Phe-OH
Produced peptide (mM) [4, 10]: tr

L-Gln-L-Gln
Produced peptide ([1]; Table 15-2, L-Gln 150 mM): 0.1 mM | Formed peptide ([3]; 150 mM L-glutamine): 0.3 mM

L-Ala-L-Arg
Produced peptide [1, 11]: 72.2 mM | Formed peptide [2]: 72.1 mM

L-Ser-L-Phe
Produced peptide [1, 9]: 4.3 mM | Formed peptide ([3]; L-amino acid 150 mM): 20.3 mM

B1: Papain: thiol endopeptidase described in EP 359399B1, purified enzyme manufactured by Sigma (protein, UniProt P00784 134-345, looked up)
Papain: IPEYVDWRQKGAVTPVKNQGSCGSCWAFSAVVTIEGIIKIRTGNLNEYSEQELLDCDRRSYGCNGGYPWSALQLVAQYGIHYRNTYPYEGVQRYCRSREKGPYAAKTDGVRQVQPYNEGALLYSIANQPVSVVLEAAGKDFQLYRGGIFVGPCGNKVDHAVAAVGYGPNYILIKNSWGTGWGENGYIRIKRGTGNSYGVCGLYTSSFYPVKN
Ratio of L-Ala-L-Gln production rate per enzyme unit weight [8]: 0.0021
